Results on nine molecules are retold here after article PMC8994094 (Molecular Diversity, 2022).

Several values for one entry are separate records, joined by “and”; a condition that tells them apart may be missing. Equal entries are not always repeated.

The target in data set [1] is AChE from Electrophorus electricus (Electrophorus electricus, UniProt O42275). Briefly: AChE activity/kinetic assay. In kind it is biochemical. The note with it: for AChE Inhibition type: Lineweaver-Burk; for Selectivity index THA/AChE: ratio of KI of tacrine to KI of compound.
Data set [2] relates to cortex neuron cells and neuroblastoma SH-SY5Y cell line. Put plainly: MTT cytotoxicity test. In kind it is cell-based. Particulars: for cell viability at low concentrations: at 10 and 100 μM; for toxicity at effective concentrations on target enzymes: effective concentrations on AChE and hCAs. A general note: Tetrazolium assays rely on reduction of a dye to a coloured formazan, in cell work by metabolically active cells.

The next data set addresses hCA I (Homo sapiens, UniProt P00915). Put plainly: hCA I esterase activity/kinetic assay. Format: biochemical. The note with it: for hCA I Inhibition type: Lineweaver-Burk; for Selectivity index AAZ/hCA I: ratio of KI of acetazolamide to KI of compound; for Selectivity index hCA II/hCA I: ratio of KI values.
Another data set addresses hCA II (Homo sapiens, UniProt P00918). Put plainly: hCA II esterase activity/kinetic assay. In kind it is biochemical. The note with it: for hCA II Inhibition type: Lineweaver-Burk; for Selectivity index AAZ/hCA II: ratio of KI of acetazolamide to KI of compound; for Selectivity index hCAI/hCA II: ratio of KI values.

Sequence of hCA I (P00915 whole entry): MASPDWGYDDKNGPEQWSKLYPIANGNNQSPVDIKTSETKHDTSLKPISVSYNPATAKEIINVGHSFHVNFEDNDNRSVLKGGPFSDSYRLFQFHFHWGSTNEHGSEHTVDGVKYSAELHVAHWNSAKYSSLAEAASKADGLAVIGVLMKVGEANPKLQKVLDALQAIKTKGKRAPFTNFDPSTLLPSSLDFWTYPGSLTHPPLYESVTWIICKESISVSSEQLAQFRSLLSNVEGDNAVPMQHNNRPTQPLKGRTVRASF
Sequence of AChE from Electrophorus electricus (O42275 24-633): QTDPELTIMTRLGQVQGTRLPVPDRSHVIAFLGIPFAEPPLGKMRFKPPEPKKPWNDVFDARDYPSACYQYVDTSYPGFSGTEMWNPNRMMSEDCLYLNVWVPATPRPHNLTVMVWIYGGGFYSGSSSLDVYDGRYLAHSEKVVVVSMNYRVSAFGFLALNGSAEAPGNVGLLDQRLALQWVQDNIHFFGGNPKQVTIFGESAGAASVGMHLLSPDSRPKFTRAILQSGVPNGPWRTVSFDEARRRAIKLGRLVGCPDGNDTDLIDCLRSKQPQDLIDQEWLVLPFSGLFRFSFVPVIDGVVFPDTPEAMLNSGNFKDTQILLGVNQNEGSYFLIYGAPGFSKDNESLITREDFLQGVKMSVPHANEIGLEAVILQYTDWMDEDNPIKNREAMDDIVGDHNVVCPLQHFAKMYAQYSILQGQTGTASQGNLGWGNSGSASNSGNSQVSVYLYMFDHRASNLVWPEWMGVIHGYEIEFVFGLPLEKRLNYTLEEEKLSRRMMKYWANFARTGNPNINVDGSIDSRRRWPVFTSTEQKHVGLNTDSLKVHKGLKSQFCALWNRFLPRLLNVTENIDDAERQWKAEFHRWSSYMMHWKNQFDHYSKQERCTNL

As a reminder, the Ki is the equilibrium dissociation constant of an inhibitor or competing ligand from its target. `CCSc1nnc(-c2ccc(S(=O)(=O)NC(=O)c3ccccc3)cc2)o1` [6a, N-([4-(5-(ethylthio)-1,3,4-oxadiazol-2-yl)phenyl]sulfonyl)benzamide]: in data set [1], the affinity corresponds to a Ki of 52.5 ± 1.27 nM, the “AChE Inhibition type” value is “Competitive” and the “Selectivity index THA/AChE” value came out at 2.96. For the same molecule, in data set [2], the “cell viability at low concentrations” value is reported as “high cell viability” and the “toxicity at effective concentrations on target enzymes” value (“toxicity at effective concentrations” below) is on record as “non-toxic”. Besides, at hCA I, the Ki was found to be 21.6 ± 0.25 nM, the “hCA I Inhibition type” value is recorded as “Competitive”, the “Selectivity index AAZ/hCA I” value is 20.29 and the “Selectivity index hCA II/hCA I” value was found to be 0.43. Besides, at hCA II, affinity was put at a Ki of 9.33 ± 0.13 nM; the “hCA II Inhibition type” value is listed as “Competitive”; the “Selectivity index AAZ/hCA II” value was 10.5 and 10.53; the “Selectivity index hCAI/hCA II” value is recorded as 2.32.

Consider `CCSc1nnc(-c2ccc(S(=O)(=O)NC(=O)c3ccc(C)cc3)cc2)o1` [6b, N-([4-(5-(ethylthio)-1,3,4-oxadiazol-2-yl)phenyl]sulfonyl)-4-methylbenzamide], for which, in data set [1], the Ki was 47 ± 1.71 nM, the “AChE Inhibition type” value is recorded as “Competitive” and the “Selectivity index THA/AChE” value turned out to be 3.30. In addition, on hCA I, the Ki amounted to 59.62 ± 0.53 nM, the “hCA I Inhibition type” value is reported as “Noncompetitive”, the “Selectivity index AAZ/hCA I” value came out at 7.37 and the “Selectivity index hCA II/hCA I” value worked out at 0.30. Further, at hCA II, the affinity corresponds to a Ki of 17.8 ± 0.23 nM, the “hCA II Inhibition type” value is given as “Competitive”, the “Selectivity index AAZ/hCA II” value is given as 5.51 and the “Selectivity index hCAI/hCA II” value was determined as 3.34.

Regarding `CCCC(=O)NS(=O)(=O)c1ccc(-c2nnc(SCC)o2)cc1` [6d, N-([4-(5-(ethylthio)-1,3,4-oxadiazol-2-yl)phenyl]sulfonyl)butyramide], in data set [1], the affinity, expressed as Ki, was 48.4 ± 1.75 nM; the “AChE Inhibition type” value is on record as “Competitive”; the “Selectivity index THA/AChE” value was 3.21. Moreover, in data set [2], the “cell viability at low concentrations” value is recorded as “high cell viability” and the “toxicity at effective concentrations” value was “non-toxic”. For the same molecule, on hCA I, the Ki was 18.7 ± 0.21 nM; the “hCA I Inhibition type” value is listed as “Competitive”; the “Selectivity index AAZ/hCA I” value is 23.5 and 23.54; the “Selectivity index hCA II/hCA I” value is recorded as 1.24. In addition, on hCA II, the Ki turned out to be 23.2 ± 0.26 nM, the “hCA II Inhibition type” value is on record as “Competitive”, the “Selectivity index AAZ/hCA II” value amounted to 4.24 and the “Selectivity index hCAI/hCA II” value is recorded as 0.81.

With `CCCCC(=O)NS(=O)(=O)c1ccc(-c2nnc(SCC)o2)cc1` [6e, N-([4-(5-(ethylthio)-1,3,4-oxadiazol-2-yl)phenyl]sulfonyl)pentanamide], in data set [1], the affinity, expressed as Ki, was 41.2 ± 0.95 nM; the “AChE Inhibition type” value is given as “Noncompetitive”; the “Selectivity index THA/AChE” value is on record as 3.77. In addition, on hCA I, the inhibition constant Ki stood at 47.15 ± 0.36 nM, the “hCA I Inhibition type” value is recorded as “Competitive”, the “Selectivity index AAZ/hCA I” value is on record as 9.31 and the “Selectivity index hCA II/hCA I” value is on record as 0.79. In addition, on hCA II, the Ki is 37.24 ± 0.14 nM, the “hCA II Inhibition type” value is “Competitive”, the “Selectivity index AAZ/hCA II” value stood at 2.64 and the “Selectivity index hCAI/hCA II” value turned out to be 1.27.

For the molecule `CCCCCC(=O)NS(=O)(=O)c1ccc(-c2nnc(SCC)o2)cc1` [6f, N-([4-(5-(ethylthio)-1,3,4-oxadiazol-2-yl)phenyl]sulfonyl)hexanamide], in data set [1], the Ki stood at 39.3 ± 1.13 nM, the “AChE Inhibition type” value is given as “Competitive” and the “Selectivity index THA/AChE” value is 3.95. Further, on hCA I, the inhibitory constant (Ki) is 33.1 ± 0.47 nM, the “hCA I Inhibition type” value is recorded as “Competitive”, the “Selectivity index AAZ/hCA I” value is given as 13.27 and the “Selectivity index hCA II/hCA I” value stood at 0.88. For the same molecule, at hCA II, the inhibition constant (Ki) is 29.19 ± 0.1 nM, the “hCA II Inhibition type” value is listed as “Competitive”, the “Selectivity index AAZ/hCA II” value came to 3.37 and the “Selectivity index hCAI/hCA II” value is 1.13.

For the molecule `CCCCCCC(=O)NS(=O)(=O)c1ccc(-c2nnc(SCC)o2)cc1` [6g, N-([4-(5-(ethylthio)-1,3,4-oxadiazol-2-yl)phenyl]sulfonyl)heptanamide], in data set [1], the Ki was 49.7 ± 2.13 nM, the “AChE Inhibition type” value was “Competitive” and the “Selectivity index THA/AChE” value turned out to be 3.12. For the same molecule, at hCA I, the Ki was determined as 23 ± 0.29 nM, the “hCA I Inhibition type” value is “Competitive”, the “Selectivity index AAZ/hCA I” value is 19.09 and the “Selectivity index hCA II/hCA I” value was 1.33. In addition, at hCA II, the Ki came out at 30.71 ± 0.09 nM, the “hCA II Inhibition type” value is on record as “Competitive”, the “Selectivity index AAZ/hCA II” value was 3.20 and the “Selectivity index hCAI/hCA II” value worked out at 0.75.

For the molecule `CCCCCCCC(=O)NS(=O)(=O)c1ccc(-c2nnc(SCC)o2)cc1` [6h, N-([4-(5-(ethylthio)-1,3,4-oxadiazol-2-yl)phenyl]sulfonyl)octanamide], in data set [1], the affinity, expressed as Ki, was 23.1 ± 0.77 nM; the “AChE Inhibition type” value is reported as “Competitive”; the “Selectivity index THA/AChE” value is 6.7 and 6.72. In data set [2], the “cell viability at low concentrations” value is on record as “high cell viability” and the “toxicity at effective concentrations” value is reported as “non-toxic”. For the same molecule, on hCA I, the inhibitory constant (Ki) turned out to be 34.6 ± 0.51 nM, the “hCA I Inhibition type” value was “Competitive”, the “Selectivity index AAZ/hCA I” value was 12.69 and the “Selectivity index hCA II/hCA I” value was determined as 3.49. For the same molecule, at hCA II, the affinity corresponds to a Ki of 120.8 ± 0.34 nM, the “hCA II Inhibition type” value is listed as “Noncompetitive”, the “Selectivity index AAZ/hCA II” value is reported as 0.81 and the “Selectivity index hCAI/hCA II” value is 0.29.

In the case of `CCCCCCCCC(=O)NS(=O)(=O)c1ccc(-c2nnc(SCC)o2)cc1` [6i, N-([4-(5-(ethylthio)-1,3,4-oxadiazol-2-yl)phenyl]sulfonyl)nonanamide], in data set [1], affinity was put at a Ki of 47.6 ± 1.75 nM, the “AChE Inhibition type” value was “Competitive” and the “Selectivity index THA/AChE” value is given as 3.27. Moreover, on hCA I, the inhibition constant Ki amounted to 38.4 ± 0.46 nM, the “hCA I Inhibition type” value is “Competitive”, the “Selectivity index AAZ/hCA I” value was found to be 11.44 and the “Selectivity index hCA II/hCA I” value stood at 2.93. Moreover, at hCA II, affinity was put at a Ki of 112.7 ± 0.36 nM, the “hCA II Inhibition type” value is recorded as “Competitive”, the “Selectivity index AAZ/hCA II” value turned out to be 0.87 and the “Selectivity index hCAI/hCA II” value is 0.34.

As for `CCCCCCCCCCCC(=O)NS(=O)(=O)c1ccc(-c2nnc(SCC)o2)cc1` [6j, N-([4-(5-(ethylthio)-1,3,4-oxadiazol-2-yl)phenyl]sulfonyl)dodecanamide], in data set [1], the Ki came out at 46.7 ± 1.64 nM, the “AChE Inhibition type” value is “Competitive” and the “Selectivity index THA/AChE” value is 3.33. In addition, at hCA I, the Ki worked out at 31 ± 0.41 nM, the “hCA I Inhibition type” value is on record as “Competitive”, the “Selectivity index AAZ/hCA I” value came out at 14.16 and the “Selectivity index hCA II/hCA I” value stood at 0.95. Further, on hCA II, the affinity corresponds to a Ki of 29.4 ± 0.13 nM, the “hCA II Inhibition type” value is on record as “Competitive”, the “Selectivity index AAZ/hCA II” value is 3.34 and the “Selectivity index hCAI/hCA II” value is 1.05.
